# Source: the NIST ThermoML archive (doi:10.1016/j.jct.2014.09.001)
# ± gives the expanded uncertainty stated by the source.
# Tests used:
# [1] = 298.15 K; 101.33 kPa; Liquid; Vibrating tube method
# [2] = refractive index (Na D-line) (dimensionless); conditions: 298.15 K; 101.33 kPa; Liquid; Standard Abbe refractometry
# [3] = excess molar enthalpy (molar enthalpy of mixing); xn = mol fraction of the nth substance listed; conditions: 298 K, 81.5 kPa, Liquid, Isoperibol calorimetry
smiles,measurement,setting,value
CCCCO [butan-1-ol],mass density,[1],805.79 ± 1 kg/m3
same,refractive index,[2],1.39734 ± 0.00031
CCC(C)O (stereo not drawn) [butan-2-ol],mass density,[1],802.48 ± 1 kg/m3
same,refractive index,[2],1.39551 ± 0.00037
CCO [ethanol],mass density,[1],784.9 ± 1 kg/m3
same,refractive index,[2],1.35961 ± 0.00031
O=[N+]([O-])c1ccccc1 [nitrobenzene],mass density,[1],1198.12 ± 1.1 kg/m3
same,refractive index,[2],1.55004 ± 0.00037
O=[N+]([O-])c1ccccc1 [nitrobenzene] + CC(C)O,excess molar enthalpy,[3]; x1 = 0.1038,0.208 ± 0.00263 kcal/mol
same,excess molar enthalpy,[3]; x1 = 0.2065,0.339 ± 0.0043 kcal/mol
same,excess molar enthalpy,[3]; x1 = 0.306,0.42 ± 0.00526 kcal/mol
same,excess molar enthalpy,[3]; x1 = 0.3954,0.466 ± 0.00574 kcal/mol
same,excess molar enthalpy,[3]; x1 = 0.4911,0.488 ± 0.00598 kcal/mol
same,excess molar enthalpy,[3]; x1 = 0.5906,0.485 ± 0.00598 kcal/mol
same,excess molar enthalpy,[3]; x1 = 0.6999,0.451 ± 0.00574 kcal/mol
same,excess molar enthalpy,[3]; x1 = 0.8042,0.381 ± 0.00478 kcal/mol
same,excess molar enthalpy,[3]; x1 = 0.8996,0.264 ± 0.00335 kcal/mol
O=[N+]([O-])c1ccccc1 [nitrobenzene] + CCC(C)O,excess molar enthalpy,[3]; x1 = 0.1035,0.262 ± 0.00335 kcal/mol
same,excess molar enthalpy,[3]; x1 = 0.2049,0.424 ± 0.00526 kcal/mol
same,excess molar enthalpy,[3]; x1 = 0.3065,0.528 ± 0.00669 kcal/mol
same,excess molar enthalpy,[3]; x1 = 0.4088,0.579 ± 0.00717 kcal/mol
same,excess molar enthalpy,[3]; x1 = 0.5111,0.592 ± 0.00741 kcal/mol
same,excess molar enthalpy,[3]; x1 = 0.6117,0.568 ± 0.00693 kcal/mol
same,excess molar enthalpy,[3]; x1 = 0.6988,0.534 ± 0.00669 kcal/mol
same,excess molar enthalpy,[3]; x1 = 0.7988,0.448 ± 0.0055 kcal/mol
same,excess molar enthalpy,[3]; x1 = 0.8981,0.292 ± 0.00382 kcal/mol
O=[N+]([O-])c1ccccc1 [nitrobenzene] + CCCCO,excess molar enthalpy,[3]; x1 = 0.1116,0.184 ± 0.00239 kcal/mol
same,excess molar enthalpy,[3]; x1 = 0.2145,0.31 ± 0.00382 kcal/mol
same,excess molar enthalpy,[3]; x1 = 0.3183,0.398 ± 0.00502 kcal/mol
same,excess molar enthalpy,[3]; x1 = 0.4126,0.448 ± 0.0055 kcal/mol
same,excess molar enthalpy,[3]; x1 = 0.5133,0.464 ± 0.00574 kcal/mol
same,excess molar enthalpy,[3]; x1 = 0.61,0.466 ± 0.00574 kcal/mol
same,excess molar enthalpy,[3]; x1 = 0.6849,0.449 ± 0.0055 kcal/mol
same,excess molar enthalpy,[3]; x1 = 0.7953,0.391 ± 0.00502 kcal/mol
same,excess molar enthalpy,[3]; x1 = 0.8987,0.262 ± 0.00335 kcal/mol
O=[N+]([O-])c1ccccc1 [nitrobenzene] + CCCO,excess molar enthalpy,[3]; x1 = 0.1037,0.169 ± 0.00222 kcal/mol
same,excess molar enthalpy,[3]; x1 = 0.2036,0.288 ± 0.00359 kcal/mol
same,excess molar enthalpy,[3]; x1 = 0.3063,0.364 ± 0.00454 kcal/mol
same,excess molar enthalpy,[3]; x1 = 0.4034,0.409 ± 0.00502 kcal/mol
same,excess molar enthalpy,[3]; x1 = 0.4956,0.432 ± 0.0055 kcal/mol
same,excess molar enthalpy,[3]; x1 = 0.4993,0.432 ± 0.0055 kcal/mol
same,excess molar enthalpy,[3]; x1 = 0.593,0.43 ± 0.00526 kcal/mol
same,excess molar enthalpy,[3]; x1 = 0.6975,0.408 ± 0.00502 kcal/mol
same,excess molar enthalpy,[3]; x1 = 0.7978,0.351 ± 0.0043 kcal/mol
same,excess molar enthalpy,[3]; x1 = 0.9025,0.242 ± 0.00311 kcal/mol
O=[N+]([O-])c1ccccc1 [nitrobenzene] + CCO,excess molar enthalpy,[3]; x1 = 0.0997,0.112 ± 0.00153 kcal/mol
same,excess molar enthalpy,[3]; x1 = 0.1991,0.201 ± 0.00263 kcal/mol
same,excess molar enthalpy,[3]; x1 = 0.2988,0.264 ± 0.00335 kcal/mol
same,excess molar enthalpy,[3]; x1 = 0.4003,0.307 ± 0.00382 kcal/mol
same,excess molar enthalpy,[3]; x1 = 0.4899,0.342 ± 0.0043 kcal/mol
same,excess molar enthalpy,[3]; x1 = 0.5905,0.355 ± 0.00454 kcal/mol
same,excess molar enthalpy,[3]; x1 = 0.6997,0.344 ± 0.0043 kcal/mol
same,excess molar enthalpy,[3]; x1 = 0.7999,0.304 ± 0.00382 kcal/mol
same,excess molar enthalpy,[3]; x1 = 0.8939,0.222 ± 0.00287 kcal/mol
CCCO [propan-1-ol],mass density,[1],799.56 ± 1 kg/m3
same,refractive index,[2],1.38361 ± 0.00031
CC(C)O [propan-2-ol],mass density,[1],780.9 ± 1 kg/m3
same,refractive index,[2],1.37518 ± 0.00033
